# From ChEMBL document CHEMBL4049411, “Rational Design, Synthesis, and Biological Evaluation of Heterocyclic Quinolones Targeting the Respiratory Chain of Mycobacterium tuberculosis” (J Med Chem, 2017)
# How the values were obtained:
# [1] = system: Mycobacterium tuberculosis; assay: Growth inhibition of multi-drug resistant Mycobacterium tuberculosis DQ707 harboring katG S315N mutant; assay type: functional
# [2] = system: Mycobacterium tuberculosis; assay: Growth inhibition of multi-drug resistant Mycobacterium tuberculosis 05TB42059; assay type: functional
smiles,measurement,setting,value
Cc1c(-c2ccc(N3CCC(F)(F)C3)cc2)[nH]c2cc(F)cc(F)c2c1=O,IC50,[1],0.548 µM
same,IC50,[2],0.14 µM
